The numbers were not newly measured in US20160081937A1, “TABLET WITH INCREASED DRUG LOAD OF ODANACATIB” (SANDOZ AG, priority 2013, published 2016), which cites them from elsewhere.

The conditions of data set [1]: crystalline odanacatib.
The conditions of data set [2]: in vivo.

Consider `CC(C)(F)C[C@H](N[C@@H](c1ccc(-c2ccc(S(C)(=O)=O)cc2)cc1)C(F)(F)F)C(=O)NC1(C#N)CC1` [Odanacatib, odanacatib], for which the aqueous solubility result in data set [1] is on record as “low”. Also, the “lumbar spine, hip and femoral neck BMD” value (patients treated once weekly with 20-50 mg) is on record as “increases”. Moreover, under “patients treated with low doses”, the “BMD at the same sites (lumbar spine, hip, femoral neck)” value is on record as “decreases”. For the same compound, in data set [2], the oral bioavailability result is “highly dependable on vehicle, dosage and sample preparation”.
